Reference: BindingDB's records for doi:10.1021/jm00120a002 (Merck Sharp & Dohme Research Laboratories, 1989)

assay: Half-maximal inhibition of [125I]gastrin binding to guinea pig gastric glands

Compared with `CN1C(=O)[C@H](NC(=O)c2ccccc2Cl)N=C(c2ccccc2)c2ccccc21`, `CN1C(=O)C(NC(=O)c2ccccc2Cl)N=C(c2ccccc2)c2ccccc21` (configuration not stated) is 4-fold higher in IC50: 7.5 µM for the first, 30 µM for the second. The first is the more potent here.

First: CN1C(=O)C(NC(=O)c2cc3ccccc3[nH]2)N=C(c2ccccc2F)c2ccccc21 (configuration not stated) [1H-Indole-2-carboxylic acid [5-(2-fluoro-phenyl)-1-methyl-2-oxo-2,3-dihydro-1H-benzo[e][1,4]diazepin-3-yl]-amide]
Second: CN1C(=O)[C@@H](NC(=O)c2cc3ccccc3[nH]2)N=C(c2ccccc2F)c2ccccc21
The IC50 of the first is 6.8-fold higher: 0.19 µM for the first, 0.028 µM for the second. The second is the more potent here.

Going from `CN1C(=O)C(NC(=O)c2ccc(Cl)cc2)[N+]([O-])=C(c2ccccc2F)c2ccccc21` (configuration not stated) to `CN1C(=O)[C@H](NC(=O)c2ccc(Cl)cc2)N=C(c2ccccc2F)c2ccccc21`, the IC50 rises from 2.4 µM to 5.2 µM (2.2-fold). The first is the more potent here.

First: O=C(NC1N=C(c2ccccc2F)c2ccccc2NC1=O)c1ncc2ccccc2n1 (configuration not stated)
Second: O=C(NC1N=C(c2ccccc2F)c2ccccc2NC1=O)c1cc2ccccc2[nH]1 (configuration not stated)
The IC50 of the first is higher: greater than 10 µM for the first, 4.6 µM for the second.

Going from `N#Cc1ccc(C(=O)NC2N=C(c3ccccc3)c3ccccc3NC2=O)cc1` (configuration not stated) [4-Cyano-N-(2-oxo-5-phenyl-2,3-dihydro-1H-benzo[e][1,4]diazepin-3-yl)-benzamide] to `O=C(NC1N=C(c2ccccc2)c2ccccc2NC1=O)c1ccc(Cl)cc1` (configuration not stated), the IC50 falls from 22 µM to 8.2 µM (2.7-fold). The second is the more potent here.

First: CN1C(=O)C(NC(=O)[C@H](Cc2ccccc2)NC(=O)OC(C)(C)C)N=C(c2ccccc2F)c2ccccc21 (some centres not stated)
Second: CN1C(=O)C(NC(=O)C(Cc2ccccc2)NC(=O)OC(C)(C)C)N=C(c2ccccc2F)c2ccccc21 (configuration not stated)
The IC50 of the first is 2.4-fold lower: 1.2 µM for the first, 2.9 µM for the second. The first is the more potent here.

First: O=C(NC1N=C(c2ccccc2)c2ccccc2NC1=O)C1Cc2ccccc2N1 (configuration not stated)
Second: O=C(NC1N=C(c2ccccc2)c2ccccc2NC1=O)c1ccccc1Cl (configuration not stated) [2-Chloro-N-(2-oxo-5-phenyl-2,3-dihydro-1H-benzo[e][1,4]diazepin-3-yl)-benzamide. 0.02CHCl3]
The IC50 of the first is 2.1-fold higher: 110 µM for the first, 52 µM for the second. The second is the more potent here.

First: CN1C(=O)C(NC(=O)c2ccc(Cl)cc2N)N=C(c2ccccc2)c2ccccc21 (configuration not stated) [2-Amino-4-chloro-N-(1-methyl-2-oxo-5-phenyl-2,3-dihydro-1H-benzo[e][1,4]diazepin-3-yl)-benzamide.H2O]
Second: CN1C(=O)[C@@H](NC(=O)c2ccccc2Cl)N=C(c2ccccc2)c2ccccc21
The IC50 of the first is 68-fold lower: 1.9 µM for the first, 130 µM for the second. The first is the more potent here.

First: CN(C(=O)c1cc2ccccc2[nH]1)C1N=C(c2ccccc2)c2ccccc2NC1=O (configuration not stated)
Second: O=C(NC1N=C(c2ccccc2)c2ccccc2NC1=O)c1cc2ccccc2[nH]1 (configuration not stated)
The IC50 of the first is higher: greater than 10 µM for the first, 4 µM for the second. The second is the more potent here.

Compared with `O=C(NC1N=C(c2ccccc2)c2ccccc2NC1=O)c1ccc(C(F)(F)F)cc1` (configuration not stated), `O=C(NC1N=C(c2ccccc2)c2ccccc2NC1=O)c1ccc(F)cc1` (configuration not stated) is 3.8-fold lower in IC50: 36 µM for the first, 9.4 µM for the second. The second is the more potent here.

`O=C(NC1N=C(c2ccccc2F)c2ccccc2NC1=O)c1cc2cc(Cl)ccc2[nH]1` (configuration not stated) [5-Chloro-1H-indole-2-carboxylic acid [5-(2-fluoro-phenyl)-2-oxo-2,3-dihydro-1H-benzo[e][1,4]diazepin-3-yl]-amide] and `O=C(NC1N=C(c2ccccc2F)c2ccccc2NC1=O)c1cc2cc(Br)ccc2[nH]1` (configuration not stated) cannot be ordered by IC50: 20 µM for the first, greater than 10 µM for the second.

Going from `O=C(NC1N=C(c2ccccc2F)c2ccccc2NC1=O)c1ccc(Cl)cc1` (configuration not stated) to `Cc1ccc(C(=O)NC2N=C(c3ccccc3F)c3ccccc3NC2=O)cc1` (configuration not stated), the IC50 falls from 14 µM to 5 µM (2.8-fold). The second is the more potent here.

First: O=C(/C=C/c1ccccc1)NC1N=C(c2ccccc2F)c2ccccc2NC1=O (configuration not stated)
Second: O=C(NC1N=C(c2ccccc2F)c2ccccc2NC1=O)c1ccccc1 (configuration not stated)
The IC50 of the first is 7.4-fold lower: 3.8 µM for the first, 28 µM for the second. The first is the more potent here.

Going from `COc1ccc2[nH]c(C(=O)NC3N=C(c4ccccc4F)c4ccccc4NC3=O)cc2c1` (configuration not stated) to `COc1ccc(C(=O)NC2N=C(c3ccccc3F)c3ccccc3NC2=O)cc1` (configuration not stated), the IC50 falls from greater than 10 µM to 5.4 µM.

Going from `O=C(O)CN1C(=O)C(NC(=O)c2cc3ccccc3[nH]2)N=C(c2ccccc2F)c2ccccc21` (configuration not stated) to `CCOC(=O)CN1C(=O)C(NC(=O)c2cc3ccccc3[nH]2)N=C(c2ccccc2F)c2ccccc21` (configuration not stated), the IC50 falls from 0.39 µM to 0.12 µM (3.3-fold).

Going from `O=C(NC1N=C(c2ccccc2)c2ccccc2NC1=O)c1c[nH]c2ccccc12` (configuration not stated) to `O=C(Cc1c[nH]c2ccccc12)NC1N=C(c2ccccc2)c2ccccc2NC1=O` (configuration not stated), the IC50 rises from 18 µM to 32 µM (1.8-fold).

`CC(C)(C)OC(=O)N[C@H](Cc1c[nH]c2ccccc12)C(=O)NC1N=C(c2ccccc2)c2ccccc2NC1=O` (some centres not stated) and `CC(C)(C)OC(=O)N[C@H](Cc1ccccc1)C(=O)NC1N=C(c2ccccc2)c2ccccc2NC1=O` (some centres not stated) cannot be ordered by IC50: greater than 100 µM for the first, greater than 100 µM for the second.

Going from `CN1C(=O)[C@@H](NC(=O)c2ccc(Br)cc2)N=C(c2ccccc2)c2ccccc21` to `CN1C(=O)C(NC(=O)c2ccc(Br)cc2)N=C(c2ccccc2)c2ccccc21` (configuration not stated) [4-Bromo-N-(1-methyl-2-oxo-5-phenyl-2,3-dihydro-1H-benzo[e][1,4]diazepin-3-yl)-benzamide:0.05C3H6O], the IC50 rises from 0.8 µM to 1.7 µM (2.1-fold). The first is the more potent here.

`CN1C(=O)CN=C(c2ccccc2)c2ccccc21` and `CC(C)C(=O)N[C@H]1N=C(c2ccccc2)c2ccccc2N(C)C1=O` are within 1.5-fold of each other in IC50: 94 µM for the first, 73 µM for the second.

First: O=C1Nc2ccccc2C(c2ccccc2)=NC1NCCc1c[nH]c2ccccc12 (configuration not stated)
Second: O=C(CCc1c[nH]c2ccccc12)NC1N=C(c2ccccc2)c2ccccc2NC1=O (configuration not stated)
The IC50 of the first is higher: greater than 100 µM for the first, 17 µM for the second. The second is the more potent here.

Compared with `CN1C(=O)C(NC(=O)c2cc3ccccc3n2C)N=C(c2ccccc2F)c2ccccc21` (configuration not stated), `Cn1c(C(=O)NC2N=C(c3ccccc3F)c3ccccc3NC2=O)cc2ccccc21` (configuration not stated) is 3.9-fold higher in IC50: 1.6 µM for the first, 6.3 µM for the second. The first is the more potent here.

First: CCOC(=O)CN1C(=O)C(NC=O)N=C(c2ccccc2)c2ccccc21 (configuration not stated)
Second: CCOC(=O)CN1C(=O)C(NC(=O)c2ccccc2Cl)N=C(c2ccccc2F)c2ccccc21 (configuration not stated) [[3-(2-Chloro-benzoylamino)-5-(2-fluoro-phenyl)-2-oxo-2,3-dihydro-benzo[e][1,4]diazepin-1-yl]-acetic acid ethyl ester]
The IC50 of the first is 19-fold higher: 25 µM for the first, 1.3 µM for the second.

Compared with `O=C(NC1N=C(c2ccccc2F)c2ccccc2NC1=O)c1ccccc1Cl` (configuration not stated) [2-Chloro-N-[5-(2-fluoro-phenyl)-2-oxo-2,3-dihydro-1H-benzo[e][1,4]diazepin-3-yl]-benzamide: 0.1C4H8O2], `CN1C(=O)[C@H](NC(=O)c2ccccc2Cl)N=C(c2ccccc2F)c2ccccc21` is 4.9-fold lower in IC50: 18 µM for the first, 3.7 µM for the second. The second is the more potent here.

Compared with `CN1C(=O)[C@H](NC(=O)C2CCCCC2)N=C(c2ccccc2)c2ccccc21`, `CN1C(=O)[C@@H](NC(=O)C(C)(C)C)N=C(c2ccccc2)c2ccccc21` is 8.7-fold higher in IC50: 1.5 µM for the first, 13 µM for the second. The first is the more potent here.

First: O=C(NC1N=C(c2ccccc2)c2ccccc2NC1=O)c1ccc2ccccc2c1 (configuration not stated)
Second: O=C(NC1N=C(c2ccccc2)c2ccccc2NC1=O)c1cccc2ccccc12 (configuration not stated)
The IC50 of the first is 2.1-fold lower: 14 µM for the first, 29 µM for the second. The first is the more potent here.

`CN1C(=O)[C@@H](NC(=O)c2ccc(Br)cc2)N=C(c2ccccc2F)c2ccccc21` and `CN1C(=O)[C@@H](NC(=O)c2ccc(I)cc2)N=C(c2ccccc2F)c2ccccc21` are within 1.5-fold of each other in IC50: 0.68 µM for the first, 0.53 µM for the second.

`CC(C)(C)c1ccc(C(=O)NC2N=C(c3ccccc3)c3ccccc3NC2=O)cc1` (configuration not stated) [4-tert-Butyl-N-(2-oxo-5-phenyl-2,3-dihydro-1H-benzo[e][1,4]diazepin-3-yl)-benzamide: 0.12CHCl3] and `O=C(NC1N=C(c2ccccc2)c2ccccc2NC1=O)c1ccc(O)cc1` (configuration not stated) are within 1.5-fold of each other in IC50: 40 µM for the first, 31 µM for the second.

Going from `CN1C(=O)[C@@H](NC(=O)c2ccc(C(F)(F)F)cc2)N=C(c2ccccc2F)c2ccccc21` to `CN1C(=O)C(NC(=O)c2ccc(C(C)(C)C)cc2)N=C(c2ccccc2F)c2ccccc21` (configuration not stated), the IC50 rises from 0.44 µM to 6.4 µM (15-fold). The first is the more potent here.

`O=C(NC1N=C(c2ccccc2F)c2ccccc2NC1=O)c1cc2ccccc2o1` (configuration not stated) and `O=C1Nc2ccccc2C(c2ccccc2F)=NC1NC(=O)C(O)c1ccccc1` (configuration not stated) cannot be ordered by IC50: 11 µM for the first, greater than 10 µM for the second.

Compared with `O=C(NC1N=C(c2ccccc2)c2ccccc2NC1=O)c1cccc(Cl)c1` (configuration not stated) [3-Chloro-N-(2-oxo-5-phenyl-2,3-dihydro-1H-benzo[e][1,4]diazepin-3-yl)-benzamide:0.5CHCl3], `CSc1ccc(C(=O)NC2N=C(c3ccccc3)c3ccccc3NC2=O)cc1` (configuration not stated) is 2.4-fold lower in IC50: 19 µM for the first, 8 µM for the second. The second is the more potent here.

Going from `O=C1Nc2ccccc2C(c2ccccc2F)=NC1NCc1cc2ccccc2[nH]1` (configuration not stated) to `CN1C(=O)[C@H](NC(=O)c2cc3ccccc3[nH]2)N=C(c2ccccc2F)c2ccccc21`, the IC50 falls from greater than 10 µM to 0.24 µM. The second is the more potent here.

First: CN1C(=O)[C@@H](NC(=O)/C=C/c2ccccc2)N=C(c2ccccc2)c2ccccc21
Second: CN1C(=O)[C@H](NC(=O)[C@H](N)Cc2ccccc2)N=C(c2ccccc2)c2ccccc21 [(R)-2-amino-N-((R)-1-methyl-2-oxo-5-phenyl-2,3-dihydro-1H-benzo[e][1,4]diazepin-3-yl)-3-phenylpropanamide]
The IC50 of the first is 310-fold lower: 0.18 µM for the first, 55 µM for the second.

Compared with `CN1C(=O)C(NC(=O)c2cccc(I)c2)N=C(c2ccccc2F)c2ccccc21` (configuration not stated), `CN1C(=O)[C@@H](NC(=O)c2cccc(Br)c2)N=C(c2ccccc2F)c2ccccc21` is 1.9-fold higher in IC50: 0.39 µM for the first, 0.75 µM for the second. The first is the more potent here.

`CN1C(=O)C(NC(=O)[C@@H](Cc2ccccc2)NC(=O)OC(C)(C)C)N=C(c2ccccc2)c2ccccc21` (some centres not stated) and `CN1C(=O)[C@@H](NC(=O)c2ccccc2I)N=C(c2ccccc2)c2ccccc21` are within 1.5-fold of each other in IC50: 26 µM for the first, 38 µM for the second.

First: O=C(O)CN1C(=O)C(NC(=O)c2cc3ccccc3[nH]2)N=C(c2ccccc2)c2ccccc21 (configuration not stated) [CCK antagonist synthetic 20]
Second: O=C(O)CN1C(=O)C(NC(=O)c2ccc(Cl)cc2)N=C(c2ccccc2F)c2ccccc21 (configuration not stated)
The IC50 of the first is 13-fold lower: 0.65 µM for the first, 8.2 µM for the second.

`CN1C(=O)C(NC(=O)c2ccsc2)N=C(c2ccccc2F)c2ccccc21` (configuration not stated) and `O=C(NC1N=C(c2ccccc2F)c2ccccc2NC1=O)c1ccsc1` (configuration not stated) cannot be ordered by IC50: 11 µM for the first, greater than 10 µM for the second.

`O=C(NC1N=C(c2ccccc2F)c2ccccc2N(C(=O)c2ccc(Cl)cc2)C1=O)c1ccc(Cl)cc1` (configuration not stated) and `CN1C(=O)[C@@H](NC(=O)c2ccc(Cl)cc2)N=C(c2ccccc2F)c2ccccc21` are within 1.5-fold of each other in IC50: 0.55 µM for the first, 0.8 µM for the second.

First: CC(C)CCC(=O)N[C@H]1N=C(c2ccccc2)c2ccccc2N(C)C1=O
Second: CCCCCc1ccc(C(=O)N[C@H]2N=C(c3ccccc3F)c3ccccc3N(C)C2=O)cc1
The IC50 of the first is 2.2-fold higher: 130 µM for the first, 60 µM for the second. The second is the more potent here.

`O=C(NC1N=C(c2ccccc2F)c2ccccc2NC1=O)c1ccc([N+](=O)[O-])cc1` (configuration not stated) and `O=C(NC1N=C(c2ccccc2F)c2ccccc2NC1=O)c1ccc[nH]1` (configuration not stated) cannot be ordered by IC50: greater than 10 µM for the first, 25 µM for the second.

Going from `O=C(NC1N=C(c2ccccc2)c2ccccc2NC1=O)c1ccc(-c2ccccc2)cc1` (configuration not stated) to `CCCc1ccc(C(=O)NC2N=C(c3ccccc3)c3ccccc3NC2=O)cc1` (configuration not stated), the IC50 falls from greater than 100 µM to 80 µM. The second is the more potent here.

First: CN1C(=O)[C@@H](NC(=O)c2ccc(C#N)cc2)N=C(c2ccccc2F)c2ccccc21
Second: O=C(Cc1cccc2sccc12)NC1N=C(c2ccccc2F)c2ccccc2NC1=O (configuration not stated)
The IC50 of the first is 2.3-fold higher: 9 µM for the first, 3.9 µM for the second.
